By GI50 is commonly meant the concentration that inhibits growth by half. What is called TGI is the concentration giving total growth inhibition. The low end stands for greater sensitivity of the cells, the high end for lower sensitivity of the cells.

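96-well plates; 48 h exposure; 5 concentrations. Endpoints by linear interpolation between flanking doses. Not reached: highest tested concentration assigned. GI50 = concentration required for 50% inhibition of growth. At the TGI there is no net growth.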

Among the test systems are IGROV1 ovarian; K-562 leukemia; TK-10 renal; HOP-62 NSCLC; LOX IMVI melanoma; NCI-H522 lung; OVCAR-4 ovarian; SF-539 CNS; HCT-15 colon; OVCAR-8 ovarian.
Assay in all cases: DTP human tumour cell line panel, 48 h

For `Fc1ccc2[nH]cc(-c3nc(-c4c[nH]c5ncccc45)cs3)c2c1`, the results for the GI50 with IGROV1 ovarian, in the assay on K-562 leukemia and in the assay with TK-10 renal were 4.46 µM, 5.03 µM and more than 100 µM, respectively. In addition, the TGI in the assay on IGROV1 ovarian, with K-562 leukemia and in the assay on TK-10 renal was more than 100 µM each time.
For the compound `O=[N+]([O-])c1nc(-c2ccccn2)[nH]c1[N+](=O)[O-]`, the total growth inhibition concentration (TGI) is more than 100 µM with HOP-62 NSCLC; more than 100 µM in the assay with IGROV1 ovarian; more than 100 µM with K-562 leukemia; more than 100 µM in the assay with LOX IMVI melanoma; 37.1 µM in the assay on NCI-H522 lung; more than 100 µM in the assay on OVCAR-4 ovarian. The total growth inhibition concentration (TGI) in the assay on SF-539 CNS and in the assay with TK-10 renal was more than 100 µM throughout.
As for `COC1=C2CC(C)CC(OC)C(O)C(C)/C=C(\C)C(OC(N)=O)C(OC)/C=C\C=C(/C)C(=O)NC(=C(C=NC(C)(C)C)C1=O)C2=O` (configuration not stated), the TGI with HCT-15 colon came to 33.1 µM; in the assay on HOP-62 NSCLC it was 41 µM; in the assay on IGROV1 ovarian it was 53.2 µM; in the assay on K-562 leukemia it was 6.26 µM; with LOX IMVI melanoma, 22.3 µM; in the assay on NCI-H522 lung, 1.63 µM. Besides, the TGI in the assay on OVCAR-4 ovarian is 14.4 µM; with OVCAR-8 ovarian, 73.6 µM; in the assay on SF-539 CNS, 24.2 µM.
Regarding `Nc1ncnc2c1ncn2C1OC(COP(=O)(O)O)C(O)C1O` (configuration not stated), the concentration for total growth inhibition (TGI) with HCT-15 colon, with HOP-62 NSCLC, in the assay on IGROV1 ovarian, in the assay with K-562 leukemia, in the assay with LOX IMVI melanoma and in the assay on NCI-H522 lung was more than 50 µM in each case. Moreover, the TGI in the assay with OVCAR-4 ovarian was more than 50 µM; in the assay with OVCAR-8 ovarian, 15.2 µM; in the assay with SF-539 CNS, more than 50 µM.
Take `O=C1OC(c2ccccc2)=N/C1=C\c1cccnc1`: the concentration for total growth inhibition (TGI) in the assay with HCT-15 colon, in the assay on HOP-62 NSCLC, in the assay on IGROV1 ovarian, in the assay with K-562 leukemia, in the assay on NCI-H522 lung and with OVCAR-4 ovarian was more than 100 µM throughout. In addition, the TGI in the assay with OVCAR-8 ovarian, in the assay on SF-539 CNS and with TK-10 renal was more than 100 µM in each case.
As for `CCOC(=O)NC(Nc1ncccn1)(C(F)(F)F)C(F)(F)F`, the TGI in the assay with HCT-15 colon, in the assay on HOP-62 NSCLC, in the assay on K-562 leukemia, in the assay with LOX IMVI melanoma, in the assay with NCI-H522 lung and in the assay on SF-539 CNS was more than 100 µM in each case. Moreover, the TGI in the assay on TK-10 renal is more than 100 µM.
As for `CC(=O)OC1C(C)OC(Oc2c(C)c3c4c(c2O)[C@@H](C)CC[C@@H]4[C@@H](C)C[C@H]3C=C(C)C)C(O)C1O` (some centres not stated), the GI50 with HOP-62 NSCLC is 2.26 µM; in the assay on IGROV1 ovarian, 46.2 µM; with K-562 leukemia, 2.24 µM; with NCI-H522 lung, 49.7 µM; in the assay with OVCAR-4 ovarian it was 3.2 µM; with OVCAR-8 ovarian, 37.8 µM. Also, the GI50 in the assay on TK-10 renal is 1.79 µM. Also, the TGI in the assay with HOP-62 NSCLC was 5.3 µM; in the assay with IGROV1 ovarian, more than 100 µM; with K-562 leukemia, 5.27 µM; with NCI-H522 lung it was more than 100 µM; in the assay with OVCAR-4 ovarian, more than 100 µM; in the assay on OVCAR-8 ovarian, more than 100 µM. In the assay on TK-10 renal, this compound showed a concentration for total growth inhibition (TGI) of 3.67 µM.
For the compound `N/C(=N\N=C/c1ccccc1O)NO`, the TGI in the assay on HCT-15 colon was more than 100 µM; in the assay with HOP-62 NSCLC it was more than 60.8 µM; with IGROV1 ovarian it was more than 100 µM; in the assay with K-562 leukemia, more than 77.6 µM; with LOX IMVI melanoma it was more than 100 µM; in the assay on NCI-H522 lung, 29.8 µM. The TGI was 31.1 µM in the assay with OVCAR-4 ovarian, more than 43.7 µM in the assay on OVCAR-8 ovarian and 28.3 µM in the assay on SF-539 CNS.
As for `CCS(=O)(=O)N1CCC(C(C)n2c(C)c(C(=O)NCc3c(OC)cc(C)[nH]c3=O)c3ccccc32)CC1` (configuration not stated), the GI50 is more than 100 µM in the assay with HCT-15 colon; more than 100 µM with HOP-62 NSCLC; 57.6 µM in the assay on IGROV1 ovarian; more than 100 µM in the assay with LOX IMVI melanoma; more than 100 µM in the assay with NCI-H522 lung; more than 100 µM in the assay with OVCAR-4 ovarian. Moreover, the GI50 in the assay with OVCAR-8 ovarian, in the assay on SF-539 CNS and with TK-10 renal was more than 100 µM throughout. For the same compound, the total growth inhibition concentration (TGI) in the assay with HCT-15 colon, in the assay with HOP-62 NSCLC, with IGROV1 ovarian, in the assay with LOX IMVI melanoma, with NCI-H522 lung and in the assay on OVCAR-4 ovarian was more than 100 µM in each case. For the same compound, the concentration for total growth inhibition (TGI) in the assay on OVCAR-8 ovarian, in the assay with SF-539 CNS and in the assay with TK-10 renal was more than 100 µM each time.
`O=C1OC[C@@H]2[C@@H](O)CCCCCN12`: the concentration for total growth inhibition (TGI) in the assay on HCT-15 colon, in the assay on HOP-62 NSCLC, in the assay on IGROV1 ovarian, in the assay on K-562 leukemia, in the assay on LOX IMVI melanoma and with NCI-H522 lung was more than 100 µM in each case. Moreover, the concentration for total growth inhibition (TGI) in the assay with OVCAR-4 ovarian, with OVCAR-8 ovarian, in the assay on SF-539 CNS and with TK-10 renal was more than 100 µM each time.
For the compound `COc1cc2c(cc1OC)-c1cc3ccccc3c[n+]1CC2`, the TGI in the assay on HOP-62 NSCLC is more than 100 µM; in the assay on IGROV1 ovarian, more than 100 µM; in the assay with K-562 leukemia, more than 100 µM; in the assay with LOX IMVI melanoma it was more than 100 µM; in the assay on NCI-H522 lung, 68.3 µM; in the assay with OVCAR-4 ovarian it was more than 100 µM. Also, the total growth inhibition concentration (TGI) in the assay with OVCAR-8 ovarian, in the assay with SF-539 CNS and with TK-10 renal was more than 100 µM throughout.
For the compound `CC1(C)CC23C4COC(=O)C2CCC1C3CC4=O` (configuration not stated), the total growth inhibition concentration (TGI) in the assay with HCT-15 colon is 21.9 µM; in the assay on HOP-62 NSCLC it was 59.3 µM; with IGROV1 ovarian, 69 µM; in the assay with K-562 leukemia it was 123 µM; in the assay on LOX IMVI melanoma, 22.6 µM; with NCI-H522 lung, 11.2 µM. For the same compound, the TGI amounted to 64.2 µM in the assay on OVCAR-4 ovarian, 46.6 µM with OVCAR-8 ovarian and 45.1 µM with SF-539 CNS.

(Values after PubChem BioAssay (NCI).)
